Experimental findings from patent US6384028B1, “N-acylpiperidinylcarbonylaminocarboxylic acids and their use as glycoprotein IIb/IIIa antagonists and fibrinogen-blood platelets binding inhibitors” (Fujisawa Pharmaceutical Co., Ltd., priority 1995, dated 2002) are described below.

This test has as its system platelet aggregation induced by ADP in platelet rich plasma (PRP) prepared from human blood. The test can be described thus: Effect on platelet aggregation induced by adenosine diphosphate (ADP). The test is classed as cell-based. Particulars: 2 min, 3×10^8 platelets/ml, drug stirred for 2 minutes at 37° C., ADP final 2.5 μM, aggregometer. The procedure:
Test 1: Effect on Platelet Aggregation Induced by Adenosine Diphosphate (ADP)
Platelet rich plasma (PRP) which contains 3×10^8 platelets/ml was prepared from human blood. To the 225 μl of PRP, 25 μl of drug solution* was added, and then stirred for 2 minutes at 37° C. To the solution 5 μl of ADP (final 2.5 μM) was added as an aggregation inducer. Aggregation was measured by using an aggregometer (NBS HEMA-TRACER 801). Activity of inhibitor (test compound) was expressed as IC50 value i.e. dose required for […] inhibition of platelet aggregation.
Drug solution* - - - Test compound was dissolved in water.

Where a name gives a salt, the structure may show the parent alone.

Take `O=C(O)C[C@@H](CCc1ccccc1)NC(=O)[C@@H]1CCCN(C(=O)/C=C/C2CCNCC2)C1` [Example 25, N-[(R)-1-[3-(4-Piperidyl)-(E)-acryloyl]-3-piperidylcarbonyl]-3(R)-phenethyl-β-alanine Hydrochloride]: the IC50 – broadly, the concentration that inhibits the measured activity by half – worked out at 85 nM.
